PubChem BioAssay (NCI)
Values joined by “and” are separate entries in the source; they are usually repeats but may differ in a detail not shown here. Equal values may be shown once.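 Interpolation was linear, between the two tested concentrations surrounding the appropriate level; five concentrations were tested over 48 hours in 96-well plates. GI50 = concentration required for 50% inhibition of growth. Definition used: TGI = concentration required for complete inhibition of growth.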

What was measured:
Assay in all cases: NCI tumour cell line growth inhibition, 48 h
[1] = tested on: SNB-75 CNS
[2] = tested on: IGROV1 ovarian
[3] = tested on: HL-60(TB) leukemia
[4] = tested on: MDA-MB-231 breast
[5] = tested on: SK-OV-3 ovarian
[6] = tested on: MALME-3M melanoma
[7] = tested on: SNB-19 CNS
[8] = tested on: EKVX NSCLC
[9] = tested on: KM12 colon
[10] = tested on: COLO 205 colon

| Structure (SMILES) | GI50 [1] | TGI [1] | GI50 [2] | TGI [2] | GI50 [3] | TGI [3] | GI50 [4] | TGI [4] | GI50 [5] | TGI [5] | GI50 [6] | TGI [6] | GI50 [7] | TGI [7] | GI50 [8] | TGI [8] | GI50 [9] | TGI [9] | GI50 [10] | TGI [10] |
| --- | --- | --- | --- | --- | --- | --- | --- | --- | --- | --- | --- | --- | --- | --- | --- | --- | --- | --- | --- | --- |
| Nc1nc(OCc2cc(Br)cs2)c2[nH]cnc2n1 | 15.7 µM | 90.2 µM | 14.5 µM | 52.1 µM | 27.9 µM | > 100 µM | 27.8 µM | > 100 µM | 21.1 µM | 57.8 µM | 17.6 µM | 97.5 µM | 37.6 µM | > 100 µM | 24.7 µM | > 100 µM | 23.2 µM | > 100 µM | 34 µM | > 100 µM |
| O=C(/C(=C\c1ccc([N+](=O)[O-])cc1)S(=O)Cc1ccc(F)cc1)c1ccc(F)cc1 (stereo not given) | 3.28 µM | 15.3 µM | 1.69 µM | 3.49 µM | 2.09 µM | 5.38 µM | 1.99 µM | 4.35 µM | 11.8 µM | 24.2 µM | 1.64 µM | 3.55 µM | 2.37 µM | 5.61 µM | 1.91 µM | 4.54 µM | 2.22 µM | 5.46 µM | 1.91 µM | 3.63 µM |
| O=C1C(=O)c2c(nc3ccc(Br)cn23)-c2ccccc21 | 0.738 µM | 2.37 µM | 1.05 µM | 2.74 µM | 0.242 µM | 0.624 µM | 0.465 µM | 2.86 µM | 1.71 µM | 3.09 µM | 0.19 µM | 0.371 µM | 1.41 µM | 2.72 µM | 1.54 µM | 3.31 µM | 1.55 µM | 3.19 µM | 1.78 µM | 3.55 µM |
| O=CNc1ncn[nH]1 | – | > 100 µM | – | > 100 µM | – | > 100 µM | – | > 100 µM | – | > 100 µM | – | > 100 µM | – | > 100 µM | – | > 100 µM | – | > 100 µM | – | > 100 µM |
| O=[N+]([O-])c1ccc(Sc2ncnc3nc[nH]c23)c2nonc12 | 1.83 µM | 14 µM | 2.32 µM | 7.64 µM | 2.8 µM | 6.03 µM | 8.15 µM | 24.2 µM | 3.75 µM | 16.2 µM | 13.1 µM | > 100 µM | 20.8 µM | 41.9 µM | 18.1 µM | 36.5 µM | 15.1 µM | > 100 µM | 2.17 µM | 4.67 µM |
| CC1=CC(=C(c2ccc(N)cc2)c2ccc(N)cc2)C=CC1=N | 0.428 µM and 0.455 µM and 2.31 µM | – | 4.06 µM and 5.72 µM | 35.9 µM and > 57.7 µM and 35.1 µM | 0.482 µM | 3.51 µM and > 21.6 µM | 2.33 µM and 2.87 µM | – | 2.44 µM and 4 µM | 8.04 µM and 25.2 µM and 17.2 µM | 0.771 µM | 6.18 µM and 11.2 µM and 11.7 µM | 0.494 µM | 14.4 µM and 20.1 µM and 28.1 µM | 1.37 µM and 2.23 µM | 20 µM and 70.8 µM and 41.5 µM | 0.557 µM and 2.72 µM | 6.54 µM and 7.11 µM and 10.1 µM | 0.373 µM and 1.77 µM | 1.6 µM and 4.86 µM and 3.38 µM |
| CCN(CC)CCOc1ccccc1/C=C/c1noc2ccccc12 | – | 22.2 µM | – | 22.3 µM | – | 40.1 µM | – | 25.7 µM | – | 34.3 µM | – | 13.9 µM | – | 26.7 µM | – | 31.9 µM | – | 31.5 µM | – | 24.1 µM |
| C=CC(=O)NCc1cccc(Nc2ncc(Br)c(NCCCNC(=O)C3CCC3)n2)c1 | 0.113 µM and 0.0839 µM | 0.637 µM and 1.02 µM | 1.17 µM and 0.732 µM | 12.5 µM and 15.8 µM | 0.821 µM and 0.893 µM | 5.96 µM and > 25 µM | 0.567 µM and 0.463 µM | 11.6 µM and 1.8 µM | 0.9 µM | 9.84 µM | 1.62 µM and 1.68 µM | 5.78 µM and 6.56 µM | 1.07 µM and 1.38 µM | 12.5 µM and 18.3 µM | 1.59 µM and 2.59 µM | 6.07 µM and 14.9 µM | 0.806 µM and 0.861 µM | 12.5 µM and > 25 µM | 0.403 µM | 2.01 µM |
| CN(C)CCNC(=O)C(C)(C)Oc1ccc(C(=O)c2ccc(Cl)cc2)cc1Cl | 9.71 µM | 24.8 µM | – | 25.3 µM | 2.82 µM | > 29.1 µM | 2.25 µM | 4.93 µM and 23.6 µM | – | 29.6 µM | 3.9 µM | 11.1 µM | – | 26 µM | – | 23.9 µM | – | 23 µM | 4.41 µM | 3.7 µM |
| CC1(C)CCC2=C(O1)c1ccccc1C(=O)C2=O | 1.64 µM | 3.01 µM and 1.35 µM | 1.8 µM and 1.78 µM | 3.55 µM and 3.39 µM | 2.83 µM | > 100 µM | 2.01 µM | 5.55 µM and 1.67 µM | – | 3.94 µM | 1.51 µM | 2.84 µM and 0.974 µM | 1.6 µM and 1.71 µM | 3.08 µM and 3.11 µM | – | 3.78 µM and 3.59 µM | 1.7 µM | 3.38 µM and 2.13 µM | – | 3.63 µM |
| O=C1Nc2c(C(F)(F)F)cccc2[C@@]1(c1ccc(O)cc1)c1ccc(OC(F)(F)F)cc1 | < 0.01 µM | < 0.0147 µM | < 0.01 µM | 0.0417 µM | 5.59 µM | 23.8 µM | 0.222 µM | 18.2 µM | 0.0415 µM | 0.38 µM | 12.4 µM | 25 µM | 0.0285 µM | 0.0974 µM | 0.0134 µM | 0.0351 µM | < 0.0143 µM | 3.28 µM | < 0.01 µM | < 0.01 µM |
